From publication PMC10232832, “ANO1-downregulation induced by schisandrathera D: a novel therapeutic target for the treatment of prostate and oral cancers” (Frontiers in Pharmacology, 2023)

Biological target: T1, Anoctamin 1 (ANO1) (Homo sapiens, UniProt Q5XXA6)
T1 construct: ANO1 stably expressed in FRT cells
T1 sequence (Q5XXA6 1-986): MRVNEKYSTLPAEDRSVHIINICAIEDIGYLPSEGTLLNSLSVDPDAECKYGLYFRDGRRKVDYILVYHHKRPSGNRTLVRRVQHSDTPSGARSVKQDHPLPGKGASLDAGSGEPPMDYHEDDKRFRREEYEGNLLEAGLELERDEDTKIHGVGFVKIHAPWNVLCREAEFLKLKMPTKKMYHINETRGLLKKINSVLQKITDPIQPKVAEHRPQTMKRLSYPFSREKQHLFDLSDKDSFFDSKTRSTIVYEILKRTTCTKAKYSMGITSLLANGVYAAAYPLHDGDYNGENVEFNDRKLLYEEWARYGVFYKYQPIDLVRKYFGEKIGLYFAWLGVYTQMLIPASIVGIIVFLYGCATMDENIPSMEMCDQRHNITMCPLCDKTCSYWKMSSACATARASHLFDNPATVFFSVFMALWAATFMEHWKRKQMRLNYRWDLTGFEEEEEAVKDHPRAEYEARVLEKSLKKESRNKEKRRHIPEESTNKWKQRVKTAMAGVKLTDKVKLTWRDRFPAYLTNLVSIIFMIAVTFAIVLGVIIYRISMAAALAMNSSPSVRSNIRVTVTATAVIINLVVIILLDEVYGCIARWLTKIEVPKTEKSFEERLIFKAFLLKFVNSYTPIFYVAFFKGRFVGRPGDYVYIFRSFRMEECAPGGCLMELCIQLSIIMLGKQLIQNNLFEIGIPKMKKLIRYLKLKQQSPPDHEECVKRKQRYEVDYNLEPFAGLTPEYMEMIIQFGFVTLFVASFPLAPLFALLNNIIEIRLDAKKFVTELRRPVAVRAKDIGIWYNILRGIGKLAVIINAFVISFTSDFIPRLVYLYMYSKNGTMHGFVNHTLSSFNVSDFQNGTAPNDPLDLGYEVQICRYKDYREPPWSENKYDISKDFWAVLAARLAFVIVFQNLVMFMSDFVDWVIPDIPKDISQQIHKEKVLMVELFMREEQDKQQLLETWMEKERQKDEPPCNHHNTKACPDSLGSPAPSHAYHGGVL
Assay: YFP fluorescence quenching (iodide influx) assay in FRT cells expressing ANO1 and YFP
Assay type: cell-based

In the case of `COc1cc(C[C@@H](C)[C@@H](C)Cc2cc(O)c(OC)c(OC)c2)cc(O)c1OC` [compound 11, schisandrathera D], the IC50 is reported as 5.24 µM.
